Results as given in patent US7999147B2, “Reduction of odors in absorbent articles” (First Quality Products, Inc., priority 2004, dated 2011).
“And” between values parts separate entries of the source, which are not always exact repeats. Equal values may be shown once.

Key:
[1] = test system: ammonia; assay: Ammonia concentration from urine in absorbent structures sprayed with additive solution (gas dosimeter tubes); design: species or system human; conditions: 37° C.
[2] = test system: ammonia; assay: Ammonia concentration from urine in absorbent structures containing additive-treated SAP (gas dosimeter tubes); design: species or system human; conditions: 1.5 g SAP treated with FORESTALL (0.135 g per 13.5 g SAP) + 4.5 g fluff pulp, 37° C., donors X, Y
Description: The following is a detailed description of the test method to measure ammonia concentrations. A series of absorbent structures are prepared according to the following. The base absorbent structure is fluff pulp or a combination of fluff and SAP. Then, for example, an aqueous solution is prepared containing a known quantity of a potential treatment for ammonia malodor. An equal quantity of the solution is sprayed onto all but one of the series of absorbent structures. The spraying is applied as uniformly as possible. One absorbent structure is sprayed with an equal volume of water and is the control. All absorbent structures are left out several hours to dry. Each of the absorbent structures is then transferred to Nalgene® Brand 125-ml, narrow-mouth polycarbonate Erlenmeyer flasks. […]
Straughan® Gastec® ammonia gas dosimeter tubes, grade 3D, are broken off and thereby opened at one end. […] Donors collect a suitable quantity of fresh urine specimen in disposable collection cups marked with volume indications. […]
The flasks are then placed into a water bath set at 37° C. […] Based on discrete markings on the detector tube, the time-weighted average concentration of ammonia measured in parts per million-hour are read from the scale and recorded. […] Readings of ammonia concentrations are read up to 72 hours time or less if any of the concentrations exceed the maximum limit of the detection tube's range. […]

[3] = Water solubility of the additive; type: physicochemical
Description: Four absorbent structures are made according to Example 4 except onto three structures, 4.5 ml of an aqueous solution containing 1% M-Quat Dimer 18 is sprayed. To dissolve the additive in water, the temperature needed to be raised to about 45-60° C. M-Quat Dimer 18 is the tradename for 2-hydroxypropylene-bis-1,3-(dimethylstearylammonium chloride). […] This chemical is manufactured by BASF Corporation.

[4] = 4.5 ml of 1% M-Quat Dimer 18 sprayed on fluff pulp + SAP, urine, donors X, Y

## 1-propanaminium, 3-amino-N-ethyl-N,N-dimethyl-N-soya acyl derivative, ethyl sulfate
[1]; 4.5 ml of 1% 1-propanaminium soya acyl derivative ethyl sulfate sprayed on fluff pulp + SAP, urine, donor Y, 56 hour
  Ammonia Concentration ppm-hour 56 hour reading: 25 ppm-hour
[1]; 4.5 ml of 1% 1-propanaminium soya acyl derivative ethyl sulfate sprayed on fluff pulp + SAP, urine, donor Z
  Ammonia Concentration ppm-hour 72 hour reading: 0 ppm-hour
[1]; 4.5 ml of 1% 1-propanaminium soya acyl derivative ethyl sulfate sprayed on fluff pulp + SAP, urine, donors Y, Z
  Ammonia Concentration ppm-hour 8 hour reading: 0 ppm-hour
[1]; 4.5 ml of 1% 1-propanaminium soya acyl derivative ethyl sulfate sprayed on fluff pulp + SAP, urine, donors Y, Z, 24 hour
  Ammonia Concentration ppm-hour 24 hour reading: 0 ppm-hour

## 4-ethyl-4-soya morpholinium ethyl sulfate [FORESTALL]
[2]
  Ammonia Concentration ppm-hour 32 hour reading: 25 ppm-hour and 30 ppm-hour
[1]; 4.5 ml of 1% FORESTALL sprayed on 4.5 g fluff pulp + 1.5 g SAP, fresh urine, donors X, Y, Z
  Ammonia Concentration ppm-hour 8 hour reading: 0 ppm-hour

## CCCCCCCCCCCCCCCCCC[N+](C)(C)CC(O)C[N+](C)(C)CCCCCCCCCCCCCCCCCC.[Cl-].[Cl-] [M-Quat Dimer 18, 2-hydroxypropylene-bis-1,3-(dimethylstearylammonium chloride)]
[3]; 1% aqueous solution
  Temperature needed to dissolve the additive in water: 45-60 °C
[3]; 37° C.
  Water solubility at 37° C.: not water soluble at 37 °C
[1]; [4]
  Ammonia Concentration ppm-hour 8 hour reading: 0 ppm-hour
  Ammonia Concentration ppm-hour 72 hour reading: 250 ppm-hour and 470 ppm-hour and 280 ppm-hour and 400 ppm-hour and 425 ppm-hour
[1]; 4.5 ml of 1% M-Quat Dimer 18 sprayed on fluff pulp + SAP, urine, donors X, Y, 32 hour
  Ammonia Concentration ppm-hour 32 hour reading: 12 ppm-hour and 20 ppm-hour and 23 ppm-hour
[1]; 4.5 ml of 1% M-Quat Dimer 18 sprayed on fluff pulp + SAP, urine, donors X, Y, 48 hour
  Ammonia Concentration ppm-hour 48 hour reading: 25 ppm-hour and 30 ppm-hour and 50 ppm-hour

## ethylbis(hydroxyethyl)tallowalkyl ammonium ethyl sulfate
[1]; 4.5 ml of 1% ethylbis(hydroxyethyl)tallowalkyl ammonium ethyl sulfate sprayed on fluff pulp + SAP, urine, donors Z, X
  Ammonia Concentration ppm-hour 8 hour reading: 0 ppm-hour

## hydrogenated tallowalkyl(2-ethylhexyl)dimethylammonium methyl sulfate [ARQUAD HTL8-MS]
[1]; 4.5 ml of 1% ARQUAD HTL8-MS sprayed on fluff pulp + SAP, urine, donors X, Y
  Ammonia Concentration ppm-hour 8 hour reading: 0 ppm-hour
